21 compounds from PubChem BioAssay AID330 (DTP/NCI, 2004) can be followed below.

The experiment relates to P388 leukemia ip, CD2F1 mice, survival T/C. The experiment is described as follows: NCI In Vivo Anticancer Drug Screen. Data for tumor model P388 Leukemia (intraperitoneal) in CD2F1 (CDF1) mice. As to conditions: endpoint: median survival time, higher = longer survival. The gist of the method:
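Mice carrying the transplanted tumor received test compound or vehicle. Survival was recorded in each group, and the value is the treated-group measurement divided by that of the vehicle-treated control group.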

Where [1] appears, read: dose: 50.0 mg/kg/injection, schedule: Q01DX009 (ip), vehicle: saline with Tween-80.
Setting [2] is: dose: 100.0 mg/kg/injection, schedule: Q01DX009 (ip), vehicle: saline with Tween-80.
Where [3] appears, read: dose: 200.0 mg/kg/injection, schedule: Q01DX009 (ip), vehicle: saline with Tween-80.
Where [4] appears, read: dose: 50.0 mg/kg/injection, schedule: Q01DX005 (ip), vehicle: Klucel (hydroxypropylcellulose) (HPC).
Where [5] appears, read: dose: 100.0 mg/kg/injection, schedule: Q01DX005 (ip), vehicle: Klucel (hydroxypropylcellulose) (HPC).
[6] abbreviates: dose: 12.5 mg/kg/injection, schedule: Q01DX005 (ip), vehicle: Klucel (hydroxypropylcellulose) (HPC).
Setting [7] is: dose: 25.0 mg/kg/injection, schedule: Q01DX005 (ip), vehicle: Klucel (hydroxypropylcellulose) (HPC).
[8] abbreviates: dose: 60.0 mg/kg/injection, schedule: Q01DX005 (ip), vehicle: saline with Tween-80.
The mark [9] stands for this setting: dose: 120.0 mg/kg/injection, schedule: Q01DX005 (ip), vehicle: saline with Tween-80.
Where [10] appears, read: dose: 50.0 mg/kg/injection, schedule: Q01DX009 (ip), vehicle: saline.

Molecules are shown by their SMILES. Several values for one entry are separate records, joined by “and”; a condition that tells them apart may be missing. Identical values can stand only once. Toxic doses and inconclusive results are not listed. Peptide text beside a SMILES is read from it. * marks the point of attachment. Propionyl = CCC(=O)*; Bn = c1ccc(C*)cc1

On to `CC(C)OC(=O)Cn1c(=O)c2nnnn2c2ccccc21`, for which the T/C runs as follows: (dose: 100.0 mg/kg/injection, schedule: Q04DX002 (ip), vehicle: Klucel (hydroxypropylcellulose) (HPC)) 93 % of control; (dose: 200.0 mg/kg/injection, schedule: Q04DX002 (ip), vehicle: Klucel (hydroxypropylcellulose) (HPC)) 98 % of control; (dose: 400.0 mg/kg/injection, schedule: Q04DX002 (ip), vehicle: Klucel (hydroxypropylcellulose) (HPC)) 93 % of control.

With `O=C(O)CC(NC(=O)OCc1ccccc1)C(=O)OCc1ccccc1` (configuration not stated), the T/C was 100 % of control under setting [1], 104 % of control under setting [2] and 104 % of control under setting [3].

Consider `CCOC(=O)C[CH2][Sn]([Cl])([Cl])[Cl]`, for which the T/C was 100 % of control (dose: 100.0 mg/kg/injection, schedule: Q04DX003 (ip), vehicle: saline) and 103 % of control (dose: 200.0 mg/kg/injection, schedule: Q04DX003 (ip), vehicle: saline).

Consider `S=C(S)n1nc(-c2ccccc2)c(N=Nc2cccc(Cl)c2Cl)c1-c1ccccc1`, for which the T/C by setting is: (dose: 100.0 mg/kg/injection, schedule: Q04DX002 (ip), vehicle: saline with Tween-80) 93 % of control; (dose: 200.0 mg/kg/injection, schedule: Q04DX002 (ip), vehicle: saline with Tween-80) 93 % of control; (dose: 400.0 mg/kg/injection, schedule: Q04DX002 (ip), vehicle: saline with Tween-80) 109 % of control.

As for `O=C(CN1CCCCC1)Nc1ccc2c(c1)C(=O)c1ccc(NC(=O)CN3CCCCC3)cc1C2=O`, the T/C under setting [4] was 90 % of control and 97 % of control; the T/C (dose: 50.0 mg/kg/injection, schedule: Q01DX005 (ip), vehicle: acid diluted with saline) is 100 % of control; the T/C under setting [5] is 90 % of control and 94 % of control; the T/C (dose: 100.0 mg/kg/injection, schedule: Q01DX005 (ip), vehicle: acid diluted with saline) is 106 % of control; the T/C (dose: 200.0 mg/kg/injection, schedule: Q01DX005 (ip), vehicle: Klucel (hydroxypropylcellulose) (HPC)) is 90 % of control and 95 % of control; the T/C (dose: 200.0 mg/kg/injection, schedule: Q01DX005 (ip), vehicle: acid diluted with saline) was 108 % of control.

In the case of `CC(=O)O[C@H]1/C=C(\C)[C@@H](O)C/C=C(\C)CC(OC(=O)c2ccccc2)[C@H]1C(C)C` (some centres not stated), the T/C runs as follows: under setting [6], 98 % of control; under setting [7], 98 % of control; under setting [4], 100 % of control; under setting [5], 95 % of control.

`CSC1(SC)CCN(C)C1=O`: the T/C was 90 % of control (dose: 25.0 mg/kg/injection, schedule: Q01DX009 (ip), vehicle: saline with Tween-80); 93 % of control under setting [1]; 92 % of control under setting [2].

On to `C1NNCC12CNNC2`, for which the T/C was 94 % of control (dose: 100.0 mg/kg/injection, schedule: Q04DX003 (ip), vehicle: suspension in saline); 94 % of control (dose: 200.0 mg/kg/injection, schedule: Q04DX003 (ip), vehicle: suspension in saline); 90 % of control (dose: 400.0 mg/kg/injection, schedule: Q04DX003 (ip), vehicle: suspension in saline).

As to `CC(=O)OCC(=O)[C@@]1(O)CC[C@H]2[C@@H]3C[C@@H](C)C4=CC(=O)C=C[C@]4(C)[C@H]3[C@@H](O)C[C@@]21C`, the T/C by setting is: under setting [2], 100 % of control; under setting [3], 100 % of control; (dose: 400.0 mg/kg/injection, schedule: Q01DX009 (ip), vehicle: saline with Tween-80) 100 % of control.

For the compound `CCC(=O)C(=O)c1ccc(O)cc1O`, the T/C was 108 % of control (dose: 50.0 mg/kg/injection, schedule: Q01DX009 (ip), vehicle: Klucel (hydroxypropylcellulose) (HPC)); 108 % of control (dose: 100.0 mg/kg/injection, schedule: Q01DX009 (ip), vehicle: Klucel (hydroxypropylcellulose) (HPC)); 105 % of control (dose: 200.0 mg/kg/injection, schedule: Q01DX009 (ip), vehicle: Klucel (hydroxypropylcellulose) (HPC)).

As for `CN(C)CCOc1ccc2c(c1)C1=NN(c3ccccc3)C(=O)CC1CO2` (configuration not stated), the T/C reads like this: under setting [8], 103 % of control; under setting [9], 99 % of control.

Turning to `[Cl][Ge]([c]1ccccc1)[c]1ccccc1.[Cl][Ge]([c]1ccccc1)[c]1ccccc1`, the T/C reads like this: (dose: 3.12 mg/kg/injection, schedule: Q01DX005 (ip), vehicle: Klucel (hydroxypropylcellulose) (HPC)) 111 % of control; (dose: 6.25 mg/kg/injection, schedule: Q01DX005 (ip), vehicle: Klucel (hydroxypropylcellulose) (HPC)) 116 % of control; under setting [6], 106 % of control.

Take `O=C(O)Cc1cnc[nH]1`: the T/C (dose: 6.25 mg/kg/injection, schedule: Q01DX009 (ip), vehicle: saline) is 100 % of control; the T/C (dose: 12.5 mg/kg/injection, schedule: Q01DX009 (ip), vehicle: saline) is 106 % of control; the T/C (dose: 25.0 mg/kg/injection, schedule: Q01DX009 (ip), vehicle: saline) was 97 % of control; the T/C under setting [10] was 99 % of control.

On to `N#CCCn1nc(Sc2ccccc2)c(=O)[nH]c1=O`, for which the T/C (dose: 50.0 mg/kg/injection, schedule: Q01DX005 (ip), vehicle: saline with Tween-80) is 95 % of control; the T/C under setting [8] was 100 % of control; the T/C (dose: 100.0 mg/kg/injection, schedule: Q01DX005 (ip), vehicle: saline with Tween-80) was 94 % of control; the T/C under setting [9] was 100 % of control; the T/C (dose: 200.0 mg/kg/injection, schedule: Q01DX005 (ip), vehicle: saline with Tween-80) was 94 % of control; the T/C (dose: 240.0 mg/kg/injection, schedule: Q01DX005 (ip), vehicle: saline with Tween-80) was 95 % of control.

As to `COc1cccc(CSCC(=O)O)c1`, the T/C reads like this: under setting [10], 97 % of control; (dose: 100.0 mg/kg/injection, schedule: Q01DX009 (ip), vehicle: saline) 102 % of control; (dose: 200.0 mg/kg/injection, schedule: Q01DX009 (ip), vehicle: saline) 92 % of control.

With `Cc1nn(C(=S)S)c(C)c1N=Nc1ccc([N+](=O)[O-])cc1`, the T/C reads like this: under setting [7], 94 % of control; under setting [4], 104 % of control; under setting [5], 108 % of control.

Consider `O=NN(CCCl)C(=O)N(CCCl)C(=O)Oc1c(Cl)cc(Cl)cc1Cl`, for which the T/C runs as follows: (dose: 25.0 mg/kg/injection, schedule: Q01DX001 (ip), vehicle: saline with Tween-80) 122 % of control; (dose: 100.0 mg/kg/injection, schedule: Q01DX001 (ip), vehicle: saline with Tween-80) 150 % of control; (dose: 200.0 mg/kg/injection, schedule: Q01DX001 (ip), vehicle: saline with Tween-80) 179 % of control and 193 % of control; (dose: 400.0 mg/kg/injection, schedule: Q01DX001 (ip), vehicle: saline with Tween-80) 199 % of control.

For the compound `COc1ccc(C(=O)c2coc3cc4c(cc23)OCO4)c(O)c1`, the T/C by setting is: (dose: 50.0 mg/kg/injection, schedule: Q01DX001 (ip), vehicle: Klucel (hydroxypropylcellulose) (HPC)) 88 % of control; (dose: 100.0 mg/kg/injection, schedule: Q01DX001 (ip), vehicle: Klucel (hydroxypropylcellulose) (HPC)) 88 % of control; (dose: 200.0 mg/kg/injection, schedule: Q01DX001 (ip), vehicle: Klucel (hydroxypropylcellulose) (HPC)) 88 % of control.

Consider `COc1cc2c(cc1OC)C13CC[N+]4([O-])CC5=CCOC6CC(=O)N2C1C6C5CC34` (configuration not stated), for which the T/C by setting is: (dose: 15.0 mg/kg/injection, schedule: Q01DX005 (ip), vehicle: saline) 107 % of control; (dose: 30.0 mg/kg/injection, schedule: Q01DX005 (ip), vehicle: saline) 108 % of control; (dose: 60.0 mg/kg/injection, schedule: Q01DX005 (ip), vehicle: saline) 106 % of control and 107 % of control; (dose: 120.0 mg/kg/injection, schedule: Q01DX005 (ip), vehicle: saline) 100 % of control; (dose: 240.0 mg/kg/injection, schedule: Q01DX005 (ip), vehicle: saline) 97 % of control.

Turning to `CCC[CH2][Sn]([CH2]CCC)([N]=C=S)[N]=C=S`, the T/C (dose: 0.78 mg/kg/injection, schedule: Q01DX009 (ip), vehicle: saline) was 108 % of control; the T/C (dose: 1.56 mg/kg/injection, schedule: Q01DX009 (ip), vehicle: saline) is 100 % of control; the T/C (dose: 3.12 mg/kg/injection, schedule: Q01DX009 (ip), vehicle: saline) was 100 % of control.

For the compound `CCC(=O)NC(CSCc1ccccc1)C(=O)NC(CCC(=O)OC)C(=O)OC` (configuration not stated) (Propionyl-Cys(Bn)-Glu(OMe)-OMe; configuration not given here), the T/C by setting is: under setting [1], 110 % of control; under setting [2], 100 % of control; under setting [3], 97 % of control.
